“Also recorded” adds a separate entry of the source.
Test system: migraine attack
Assay: Intravenous dose-finding study in acute migraine: headache response (moderate or severe becoming mild or none) and secondary efficacy
Assay type: in vivo, human
Description: Preclinical and early clinical experiments predict acute anti-migraine efficacy of Compound I that is mediated through a non-vascular, primarily neural, mechanism. In a multi-centre, placebo-controlled, double-blind, group-sequential, adaptive treatment-assignment, proof-of-concept and dose-finding study, 130 patients were treated in-hospital during a migraine attack. Patients were allocated to an intravenous dose level of Compound I or placebo in small cohorts. The starting dose was 2.5 mg. Subsequent doses were adjusted, up or down, according to the safety and efficacy seen in the preceding cohort. The primary outcome measure was headache response defined as improvement from moderate or severe headache at baseline to mild or no headache at 2 hours post-dose. The study was designed to explore the overall dose response relationship but was not powered to differentiate individual doses from placebo, nor to detect effect differences for other migraine symptoms.
The study used a prospective, randomized, double-blind, placebo-controlled design with group-sequential adaptive-treatment assignment (Olesen J et al., N Engl J Med 2004: 350: 1104-10; Hall D B et al., Contemporary Clinical Trials 2005; 26: 349-63). […] The first cohort was allocated to the 2.5 mg dose level. The dose used in subsequent cohorts depended on the headache response (moderate or severe headache reduced to mild or none at 2 hours) of the previous cohort: if 2 or less of the 4 active-treated patients had responded, the dose was increased, and if 3 or more of the 4 active-treated patients had responded, the dose was reduced. The dose adjustment rules were chosen to identify doses of Compound I with efficacy similar to or better than an oral triptan. […] The occurrence of a drug-related serious adverse event would lead to automatic suspension of the randomization pending a safety review.
Patients were initially screened for eligibility at an out-patient visit outside a migraine attack, and were invited to return to the clinic for treatment with study medication of a new, moderate or severe migraine attack within 4 hours of onset. On return to the clinic, eligibility for the study was reconfirmed and the patient was randomized. Patients were eligible for the study if they were between 18 and 65 years of age and had at least a 1 year history of migraine with or without aura fulfilling the IHS diagnostic criteria 1.1 and 1.2.1 (2004), with a migraine onset before the age of 50 years (Headache Classification Subcommittee of the International Headache Society. The International Classification of Headache Disorders (second edition). Cephalalgia 2004: 24; Supp11:1-160). Patients had to be experiencing between 1 and 8 migraine attacks a month and not be using migraine prophylactic medication. Patients were in good general health and had no evidence of vascular disease or hypertension. Patients with previous intolerance of triptans were excluded. Pregnant or breast-feeding women were excluded, as were women of childbearing potential who were not using a highly reliable form of contraception.
On return of the patient to the clinic, instructions for dilution of study drug were obtained from an online randomization system by a pharmacist or other study personnel, independent of the investigator, and the study drug for infusion was prepared. Both investigator and pharmacist were blinded with regard to active or placebo and only the pharmacist knew the dilution. All patients received a 60 ml intravenous infusion over 20 minutes. Efficacy and safety data before and after administration of study drug were entered immediately into an electronic data capture system, so allowing the headache response to be used to drive dose-allocation for subsequent cohorts.
Data were entered concurrently into an online electronic data capture system. Patients were discharged from the clinic after 4 h and continued to record migraine symptoms and adverse events until 24 h using a diary card. […]

CN1CCC(C(=O)c2cccc(NC(=O)c3c(F)cc(F)cc3F)n2)CC1 [Compound I, 2,4,6-trifluoro-N-[6-(1-methyl-piperidin-4-ylcarbonyl)-pyridin-2-yl]-benzamide]
Impression: very much/much better 2h (2.5 mg iv): 75.0% of Patients | Nausea 2 h (2.5 mg iv): 25.0% of Patients | No/mild disability 2 h (2.5 mg iv): 75.0% of Patients | Pain freedom 2 h (2.5 mg iv): 0.0% of Patients | Phonophobia 2 h (2.5 mg iv): 25.0% of Patients | Photophobia 2 h (2.5 mg iv): 25.0% of Patients | Sustained pain free (2.5 mg iv): 0.0% of Patients | Sustained pain response (2.5 mg iv): 50.0% of Patients | Use of rescue medication, 2-24 h (2.5 mg iv): 25.0% of Patients | Proportion of Patients with headache response (2.5 mg iv, 10 min post dose): 0.0% of Patients | Proportion of Patients with headache response (2.5 mg iv, 20 min post dose): 0.0% of Patients | Proportion of Patients with headache response (2.5 mg iv, 40 min post dose): 0.0% of Patients | Proportion of Patients with headache response (2.5 mg iv, 60 min post dose): 50.0% of Patients | Proportion of Patients with headache response (2.5 mg iv, 90 min post dose): 50.0% of Patients | Proportion of Patients with headache response (2.5 mg iv, 120 min post dose): 50.0% of Patients | Proportion of Patients with headache response (2.5 mg iv, 180 min post dose): 50.0% of Patients | Proportion of Patients with headache response (2.5 mg iv, 240 min post dose): 75.0% of Patients | Impression: very much/much better 2h (5 mg iv): 8.3% of Patients | Nausea 2 h (5 mg iv): 41.7% of Patients | No/mild disability 2 h (5 mg iv): 16.6% of Patients | Pain freedom 2 h (5 mg iv): 0.0% of Patients | Phonophobia 2 h (5 mg iv): 41.7% of Patients | Photophobia 2 h (5 mg iv): 75.0% of Patients | Sustained pain free (5 mg iv): 0.0% of Patients | Sustained pain response (5 mg iv): 8.3% of Patients | Use of rescue medication, 2-24 h (5 mg iv): 91.7% of Patients | Proportion of Patients with headache response (5 mg iv, 10 min post dose): 8.3% of Patients | Proportion of Patients with headache response (5 mg iv, 20 min post dose): 16.7% of Patients | Proportion of Patients with headache response (5 mg iv, 40 min post dose): 25.0% of Patients | Proportion of Patients with headache response (5 mg iv, 60 min post dose): 25.0% of Patients | Proportion of Patients with headache response (5 mg iv, 90 min post dose): 25.0% of Patients | Proportion of Patients with headache response (5 mg iv, 120 min post dose): 16.7% of Patients | Proportion of Patients with headache response (5 mg iv, 180 min post dose): 25.0% of Patients | Proportion of Patients with headache response (5 mg iv, 240 min post dose): 33.3% of Patients | Impression: very much/much better 2h (10 mg iv): 37.5% of Patients | Nausea 2 h (10 mg iv): 12.5% of Patients | No/mild disability 2 h (10 mg iv): 54.2% of Patients | Pain freedom 2 h (10 mg iv): 20.8% of Patients | Phonophobia 2 h (10 mg iv): 25.0% of Patients | Photophobia 2 h (10 mg iv): 45.8% of Patients | Sustained pain free (10 mg iv): 12.5% of Patients | Sustained pain response (10 mg iv): 33.3% of Patients | Use of rescue medication, 2-24 h (10 mg iv): 58.3% of Patients | Proportion of Patients with headache response (10 mg iv, 10 min post dose): 8.3% of Patients | Proportion of Patients with headache response (10 mg iv, 20 min post dose): 25.0% of Patients | Proportion of Patients with headache response (10 mg iv, 40 min post dose): 37.5% of Patients | Proportion of Patients with headache response (10 mg iv, 60 min post dose): 50.0% of Patients | Proportion of Patients with headache response (10 mg iv, 90 min post dose): 45.8% of Patients | Proportion of Patients with headache response (10 mg iv, 120 min post dose): 54.2% of Patients | Proportion of Patients with headache response (10 mg iv, 180 min post dose): 54.2% of Patients | Proportion of Patients with headache response (10 mg iv, 240 min post dose): 54.2% of Patients | onset of headache relief (20 mg and 30 mg iv): speed onset of headache relief; also recorded: rapid onset of headache relief | Impression: very much/much better 2h (20 mg iv): 42.9% of Patients | Nausea 2 h (20 mg iv): 21.4% of Patients | No/mild disability 2 h (20 mg iv): 57.1% of Patients | Pain freedom 2 h (20 mg iv): 28.6% of Patients

From patent US12257246B2, “Composition of 2,4,6-trifluoro-n-[6-(1-methyl-piperidin-4-carbonyl)-pyridin-2-yl[-benzamide” (CoLucid Pharmaceuticals, Inc., priority 2009, dated 2025)
